Where two headings read alike, the source gives them in different places. Marks after values point to notes of the source that are not given here.
Assays:
[1] = biological target: T1, human serum albumin (HSA) (Homo sapiens, UniProt P02768); experiment: Isothermal titration calorimetry (ITC) of binding of catechins and analogs to HSA; set-up: purchased Sigma-Aldrich Japan (Tokyo, Japan); settings: for change of binding affinity with addition of 0.2 M NaCl: 0.2 M NaCl versus no NaCl
Procedure: The binding of the catechins and its analogs to HSA was examined in a VP-ITC instrument (Microcal Northampton, MA). […] The data were analyzed with the Origin software (ver. 7) by means of a single-binding-site model. The thermodynamic parameters were obtained from three replicate titrations, where the dilution heats of the ligands were subtracted.

[2] = biological target: T1, human serum albumin (HSA); experiment: Differential scanning calorimetry (DSC), thermal stability of HSA–ligand complexes; settings: for Tm: DSC, HSA 50 μM, ligand 500 μM, 50 mM sodium phosphate pH 6.8, HSA alone 68.6 ± 0.1; for ΔTm at 500 µM: human, pH 6.8
Procedure: The thermal stabilities of HSA and the HSA–ligand complexes were determined by differential scanning calorimetry in a VP-DSC autosampler instrument (GE Healthcare). The cell was heated from 303 to 363 K at a rate of 1 K min^−1. The concentrations of HSA and the ligands were 50 and 500 μM, respectively, in a buffer composed of 50 mM sodium phosphate (pH 6.8). The data analysis was carried out with the Origin software (ver. 7) using a two-state model.

site I of HSA = biological target: T2, site I of HSA (Homo sapiens, UniProt P02768); experiment: ITC competition assay with warfarin (site I marker); format: binding; settings: HSA 50 μM, catechin 500 μM, warfarin 500 μM titrated, pH 6.8, 1% DMSO
T2 construct: purchased Sigma-Aldrich Japan (Tokyo, Japan)
T2 sequence (P02768 25-609): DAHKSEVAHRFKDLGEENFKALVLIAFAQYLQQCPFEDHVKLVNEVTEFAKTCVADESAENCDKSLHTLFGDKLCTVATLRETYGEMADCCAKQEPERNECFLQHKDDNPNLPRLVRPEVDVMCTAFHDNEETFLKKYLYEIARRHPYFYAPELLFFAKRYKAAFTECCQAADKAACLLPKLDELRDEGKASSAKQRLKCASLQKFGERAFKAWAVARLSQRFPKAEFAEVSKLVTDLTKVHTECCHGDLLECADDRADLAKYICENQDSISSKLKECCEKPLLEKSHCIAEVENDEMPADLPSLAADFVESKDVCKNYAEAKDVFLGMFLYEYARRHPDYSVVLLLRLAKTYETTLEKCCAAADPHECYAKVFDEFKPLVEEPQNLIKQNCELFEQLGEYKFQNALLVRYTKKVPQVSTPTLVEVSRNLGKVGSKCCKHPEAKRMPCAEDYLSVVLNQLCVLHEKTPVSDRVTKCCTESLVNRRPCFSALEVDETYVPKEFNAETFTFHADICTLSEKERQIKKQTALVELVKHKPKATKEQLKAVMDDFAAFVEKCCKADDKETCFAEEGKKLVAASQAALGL
Procedure: To obtain information about the HSA binding site of catechins, we carried out competition assays using ITC. Warfarin was used as a marker for monitoring site I of HSA. […] Warfarin was titrated into the cell containing either HSA or an HSA-EGCg complex at 180-s intervals with constant stirring at 307 rpm. The total amount of heat obtained for each measurement was taken as the total heat quantity (ΔQ), and we verified whether warfarin and the catechins bound to the same site by comparing the ΔQ from the interaction between HSA and warfarin. The binding inhibition rate was defined by the equation belowcalculated as follows: […]

[3] = Table 2, methylated catechin derivatives, ITC, 298 K
[4] = Table 2, methylated catechin derivatives, ITC, 298 K, 50 mM sodium phosphate pH 6.8
[5] = Table 2, methylated catechin derivatives, ITC, 298 K, 50 mM sodium phosphate pH 6.8, read-out: KD
[6] = S2 Table, NaCl 0.2 M, read-out: KD
[7] = Table 1, ITC, 298 K, 50 mM sodium phosphate pH 6.8
[8] = Table 1, ITC, 298 K, 50 mM sodium phosphate pH 6.8, HSA 50 μM, single-binding-site model
[9] = Table 1, ITC, 298 K, 50 mM sodium phosphate pH 6.8, read-out: KD
[10] = S1 Table, ITC binding affinity listed beside Tm, read-out: KD
[11] = human serum albumin (HSA) 50 µM in buffer

T1 sequence (P02768 25-609): as above

COc1cc(C(=O)O[C@@H]2Cc3c(O)cc(O)cc3O[C@@H]2c2cc(O)c(O)c(O)c2)cc(O)c1O [EGCg-3′′-O-Me, (−)-epigallocatechin-3′′-O-methylether gallate]
N ([1]; S3 Table, temperature 288 K): 1.1±0.1 | ΔG ([1]; S3 Table, temperature 288 K): -8.9 ± 0.1 kcal/mol | ΔH ([1]; S3 Table, temperature 288 K): -5.7 ± 1.2 kcal/mol | −TΔS ([1]; S3 Table, temperature 288 K): -3.2 ± 1.2 kcal/mol | Kd ([1]; S3 Table, temperature 288 K, read-out: KD): 0.19 ± 0.04 µM | N ([1]; S3 Table, temperature 293 K): 1.0±0.1 | ΔG ([1]; S3 Table, temperature 293 K): -9.3 ± 0.1 kcal/mol | ΔH ([1]; S3 Table, temperature 293 K): -6.9 ± 1.7 kcal/mol | −TΔS ([1]; S3 Table, temperature 293 K): -2.4 ± 1.7 kcal/mol | Kd ([1]; S3 Table, temperature 293 K, read-out: KD): 0.12 ± 0.02 µM | N ([1]; S3 Table, temperature 298 K): 1.0±0.1 | ΔG ([1]; S3 Table, temperature 298 K): -9.4 ± 0.1 kcal/mol | ΔH ([1]; S3 Table, temperature 298 K): -7.4 ± 0.9 kcal/mol | −TΔS ([1]; S3 Table, temperature 298 K): -1.9 ± 0.9 kcal/mol | Kd ([1]; S3 Table, temperature 298 K, read-out: KD): 0.14 ± 0.02 µM | N ([1]; S3 Table, temperature 303 K): 1.1±0.1 | ΔG ([1]; S3 Table, temperature 303 K): -9.4 ± 0.2 kcal/mol | ΔH ([1]; S3 Table, temperature 303 K): -8.7 ± 0.5 kcal/mol | −TΔS ([1]; S3 Table, temperature 303 K): -0.7 ± 0.4 kcal/mol | Kd ([1]; S3 Table, temperature 303 K, read-out: KD): 0.16 ± 0.04 µM | ΔG [1, 3]: -9.4 ± 0.1 kcal/mol | ΔH [1, 3]: -7.9 ± 0.9 kcal/mol | N (number of binding sites) [1, 4]: 1.0 ± 0.1 | Kd [1, 5]: 0.14 ± 0.02 µM | Kd ([1]; human, human serum albumin (HSA) 50 µM in buffer, pH 6.8, Table 2, methylated catechin derivatives, ITC, 298 K, 50 mM sodium phosphate pH 6.8, read-out: KD): 0.2 µM | ΔCp (change in heat capacity) ([1]; slope of ΔH versus temperature, 288 to 303 K): −195 cal mol^−1 K^−1

CCOC(=O)c1cc(O)c(O)c(O)c1 [EtGa, Ethyl gallate]
change of binding affinity with addition of 0.2 M NaCl ([1]; ITC): increased | Kd ([1]; S2 Table, NaCl 0 M, read-out: KD): 45.7 µM | Kd [1, 6]: 16.6 µM | ΔH/ΔG ([1]; Table 1, ITC, 298 K): 24% | ΔG [1, 7]: -5.9 ± 0.3 kcal/mol | ΔH [1, 7]: -1.4 ± 0.1 kcal/mol | −TΔS [1, 7]: -4.5 ± 0.4 kcal/mol | N (number of binding sites) [1, 8]: 1.0 ^b | Kd [1, 9]: 46 ± 23 µM

COc1c(O)cc([C@H]2Oc3cc(O)cc(O)c3C[C@H]2OC(=O)c2cc(O)c(O)c(O)c2)cc1O [EGCg-4′-O-Me, (−)-epigallocatechin-4′-O-methylether gallate]
ΔG [1, 3]: -7.9 ± 0.1 kcal/mol | ΔH [1, 3]: -7.0 ± 0.1 kcal/mol | −TΔS [1, 3]: -0.8 ± 0.1 kcal/mol | N (number of binding sites) [1, 4]: 0.9 ± 0.1 | Kd [1, 5]: 1.7 ± 0.1 µM

O=C(O[C@@H]1Cc2c(O)cc(O)cc2O[C@H]1c1cc(O)c(O)c(O)c1)c1cc(O)c(O)c(O)c1 [GCg, (−)-gallocatechin gallate]
change of binding affinity with addition of 0.2 M NaCl ([1]; ITC): decreased | thermodynamic profile of binding (enthalpy-driven or entropy-driven) ([1]; ITC, 298 K): entropy-driven | Kd [1, 10]: 8.8 ± 3.4 µM | Kd [1, 6]: 18.6 µM | ΔH/ΔG ([1]; Table 1, ITC, 298 K): 43% | ΔG [1, 7]: -6.9 ± 0.2 kcal/mol | ΔH [1, 7]: -3.0 ± 0.1 kcal/mol | −TΔS [1, 7]: -3.9 ± 0.3 kcal/mol | N (number of binding sites) [1, 8]: 1.2 ± 0.2 | Kd [1, 9]: 8.8 ± 3.4 µM | Tm [2]: 73.3 ± 0.2 °C | ΔTm at 500 µM [2, 11]: 4.6 °C

COc1cc([C@H]2Oc3cc(O)cc(O)c3C[C@H]2OC(=O)c2cc(O)c(O)c(O)c2)cc(O)c1O [EGCg-3′-O-Me, (−)-Epigallocatechin-3′-O-methylether gallate]
ΔG [1, 3]: -7.9 ± 0.1 kcal/mol | ΔH [1, 3]: -9.3 ± 0.4 kcal/mol | −TΔS [1, 3]: 1.4 ± 0.3 kcal/mol | N (number of binding sites) [1, 4]: 0.9 ± 0.1 | Kd [1, 5]: 1.6 ± 0.2 µM

Oc1cc(O)c2c(c1)O[C@H](c1cc(O)c(O)c(O)c1)[C@H](O)C2 [EGC, (−)-epigallocatechin]
change of binding affinity with addition of 0.2 M NaCl ([1]; ITC): increased | thermodynamic profile of binding (enthalpy-driven or entropy-driven) ([1]; ITC, 298 K): entropy-driven | Kd ([1]; KD, S1 Table, ITC binding affinity listed beside Tm): 20 ± 16 µM | Kd ([1]; KD, S2 Table, NaCl 0 M): 19.5 µM | Kd ([1]; KD, S2 Table, NaCl 0.2 M): 6.7 µM | Kd ([1]; KD, Table 1, ITC, 298 K, 50 mM sodium phosphate pH 6.8): 20 ± 16 µM | ΔH/ΔG ([1]; Table 1, ITC, 298 K): 10% | ΔG [1, 7]: -6.3 ± 0.4 kcal/mol | ΔH [1, 7]: -0.6 ± 0.4 kcal/mol | −TΔS [1, 7]: -5.8 ± 0.7 kcal/mol | N (number of binding sites) [1, 8]: 1.0 ± 0.2 | Tm [2]: 68.8± 0.2 °C | ΔTm at 500 µM [2]: 0.2 °C | binding site compared with warfarin (site I of HSA): identical

O=C(O[C@@H]1Cc2c(O)cc(O)cc2O[C@@H]1c1ccc(O)c(O)c1)c1cc(O)c(O)c(O)c1 [ECg, (−)-epicatechin gallate]
change of binding affinity with addition of 0.2 M NaCl ([1]; ITC): decreased | thermodynamic profile of binding (enthalpy-driven or entropy-driven) ([1]; ITC, 298 K): enthalpy-driven | Kd [1, 10]: 1.1 ± 0.1 µM | Kd [1, 6]: 3.7 µM | ΔH/ΔG ([1]; Table 1, ITC, 298 K): 63% | ΔG [1, 7]: -8.1 ± 0.1 kcal/mol | ΔH [1, 7]: -5.1 ± 0.5 kcal/mol | −TΔS [1, 7]: -3.1 ± 0.5 kcal/mol | N (number of binding sites) [1, 8]: 1.0 ± 0.1 | Kd [1, 9]: 1.1 ± 0.1 µM | Tm [2]: 72.2 ± 0.1 °C | ΔTm at 500 µM [2, 11]: 3.5 °C
